Measurements published in US20010049373A1, “Materials and methods for killing nematodes and nematode eggs” (priority 2000, published 2001).

Tested on: Caenorhabditis elegans
Assay: C. elegans L1 larvae dose-response, 5 day visual viability score (Examples 2 and 7)
Format: in vivo
Design: key: Dead: only stiff L1s (no movement); Dead (L4): worms are dead, but at a later larval stage; majority of worms are L1 (based on size); majority of worms are L2 (based on size); majority of worms are L3 (based on size); majority of worms are L4 (based on size); AD: majority of worms are adult; #AD: 5 adult worms or less; B!: sterile (0-25 progeny); B: low broodsize (25-100 progeny); ˜B: moderate broodsize (100-250 progeny); <: reduced broodsize (250-500 progeny); OK: no effect (˜1000+ progeny)
Details: day 5, Table 3
Method in brief: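 Twenty L1 larvae per well in NGM with E. coli HB101 were exposed to six 3-fold dilutions from 70 μM to 0.3 μM, 1.4% DMSO final, at 20° C. Day-5 viability was scored visually under a dissecting microscope by developmental stage, adult count and brood size.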

For CCC1CCCCN1c1cc(Oc2ccc3oc4ccccc4c3c2)ncn1 (stereo not drawn) [AKC 109], the “5 Day Visual Score V6” value (0.3 μM (procedure of Example 2)) was “B (low broodsize (25-100 progeny))”, the “5 Day Visual Score V2” value (23.3 μM (procedure of Example 2)) was “L1” and the “5 Day Visual Score V1” value (70 μM (procedure of Example 2)) was “L1”.
